Measurements reported in patent US20230181659A1, “PHAGE-MEDIATED DELIVERY OF GENES TO GUT MICROBIOME” (priority 2020, published 2023).

Columns and labels:
[1] = system: Sm^R E. coli MG1655 or W1655 F+; test: Eradication of sensitive E. coli colonizing the mouse gut by carbenicillin water; assay type: in vivo
Protocol: (§1) Mouse experiments with E. coli engraftment, antibiotic water, and phage treatment. Animal procedures were approved by the University of California, San Francisco (UCSF) Institutional Animal Care and Use Committee (IACUC), and animal experiments performed were in compliance with ethical regulations. Specific pathogen free female BALB/c mice from the vendor Taconic were used for all mouse experiments. Streptomycin water was prepared by dissolving USP grade streptomycin sulfate (VWR 0382) in autoclaved tap water to a final concentration of 5 mg/ml and passing through 0.45 μm filtration units. Mice were provided streptomycin water for 1 day, followed by oral gavage of 0.2 ml containing approximately 10^9 CFU of streptomycin-resistant E. coli. Mice were kept on streptomycin water thereafter to maintain colonization. For selection with β-lactam antibiotics, USP grade ampicillin sodium salt (Teknova A9510) or USP grade carbenicillin disodium salt (Teknova C2110) was also dissolved in the water to a final concentration of 1 mg/ml; carbenicillin was preferred for its increased stability over ampicillin (Bobrowski, M. & Borowski, E. et al., Microbiology, 68, 263-272 (1971)). Drinking water containing streptomycin was prepared fresh weekly; with the addition of a β-lactam antibiotic, it was prepared fresh every 3-4 days. For phage treatment, filtered phage solutions stored at −80° C. were thawed and used directly for oral gavage. Unfiltered phage solutions were precipitated by diluting approximately 5-fold in PBS, adding 0.2 volumes phage precipitation solution (20% PEG-8000, 2.5 M NaCl), incubating for 15 min on ice, pelleting at 15,000-21,000 g for 15 min at 4° C., resuspending in PBS, centrifuging to pellet insoluble matter, and filtering through 0.45 μm. Heat-inactivated phage were prepared by incubating 1 ml aliquots at 95° C. in a water bath for 30 min. Streptomycin-treated mice colonized with Sm^R E. coli were orally gavaged with 0.2 ml of phage and placed on drinking water containing both streptomycin and carbenicillin.
Enumeration and culture of E. coli from mouse feces. […]

[2] = Carbenicillin bioassay of culture supernatants; details: co-cultures expressing β-lactamase; 4 hours of growth; detection limit approximately 2.5 μg/ml
Protocol: Carbenicillin bioassay. Cultures were sampled over time, cells were pelleted at 21,000 g for 1 min, and the supernatant was transferred to a new tube and frozen at −20° C. until all timepoints were collected. The supernatants were thawed and assayed using a Kirby-Bauer disk diffusion test. An overnight culture of the indicator organism (Bacillus subtilis 168) was diluted in saline to an OD600 of 0.1. A cotton swab was dipped into this dilution and spread across LB agar, antibiotic sensitivity disks (Fisher Scientific S70150A) were overlaid using tweezers, and 20 μl of the supernatant was applied to the disk. At the same time, carbenicillin standards were prepared from 1 μg/ml to 100 μg/ml and also applied to discs. Plates were incubated overnight at 37° C. and imaged the following morning.

Sm^R MG1655 E. coli = test: Selection of resistant E. coli subpopulation in mouse gut with β-lactam in drinking water; assay type: in vivo; details: mice on water containing streptomycin and ampicillin; gavaged 99.9% Amp^S / 0.1% Amp^R; within 1-2 days
Protocol: as §1, with “For phage treatment, filtered phage solutions stored at −80° C. were thawed and used directly for oral gavage. Unfiltered phage solutions were precipitated by diluting approximately 5-fold in PBS, adding 0.2 volumes phage precipitation solution (20% PEG-8000, 2.5 M NaCl), incubating for 15 min on ice, pelleting at 15,000-21,000 g for 15 min at 4° C., resuspending in PBS, centrifuging to pellet insoluble matter, and filtering through 0.45 μm. Heat-inactivated phage were prepared by incubating 1 ml aliquots at 95° C. in a water bath for 30 min. Streptomycin-treated mice colonized with Sm^R E. coli were orally gavaged with 0.2 ml of phage and placed on drinking water containing both streptomycin and carbenicillin.” left out

gut microbiota = test: 16S rRNA gene sequencing of streptomycin-treated mice; assay type: in vivo; details: streptomycin water 5 mg/ml
Protocol: 16S rRNA gene sequencing. Mouse fecal pellets were stored at −80° C. DNA was extracted from single pellets using a ZymoBIOMICS 96 MagBead DNA Kit and 16S rRNA gene sequencing was performed using a dual indexing strategy (Gohl, D. M. et al., Nat. Biotechnol. 34, 942-949 (2016)). Briefly, a 22-cycle primary PCR was performed using KAPA HiFi Hot Start DNA polymerase (KAPA KK2502) and V4 515F/806R Nextera primers. The reaction was diluted in UltraPure DNase/RNase-free water (Life Tech 0977-023) and used as template for a 10-cycle secondary (indexing) PCR using sample-specific dual indexing primers. […] The DNA was gel extracted using a MinElute Gel Extraction Kit (Qiagen 28604), quantified by qPCR using a KAPA Library Quantification Kit for Illumina Platforms (KAPA KK4824), and paired-end sequenced on the Illumina MiSeq platform. Data were processed using a 16S rRNA gene analysis pipeline (https://github.com/jbisanz/AmpliconSeq) based on QIIME2 (Bolyen, E. et al., Nat. Biotechnol. 37, 852-857 (2019)) incorporating DADA2 (Callahan, B. J. et al., Nat. Methods, 13, 581-583 (2016).), and analyzed using R packages qiime2R v0.99.23 (https://github.com/jbisanz/qiime2R), phyloseq v1.33.0 (McMurdie, P. J. & Holmes, S., PLoS One, 8, e61217 (2013)), and phylosmith v1.0.4 (Smith, S. D., Journal of Open Source Software 4, 1442 (2019)). […]

SMILES: CC1(C)S[C@@H]2[C@H](NC(=O)C(C(=O)O)c3ccccc3)C(=O)N2[C@H]1C(=O)O (stereo partly drawn) [carbenicillin]
- E. coli colonization level over the course of treatment ([1]; all mice, below limit of detection): < 10^2 CFU/g
- mice with recolonization when selection was lifted ([1]; carbenicillin removed on Day 7): 5/6
- median E. coli colonization level ([1]; first day of carbenicillin in water, decreased from 9.6×10^9): 2.0×10^3 CFU/gram feces
- carbenicillin in culture supernatants [2]: not detectable

SMILES: CC1(C)S[C@@H]2[C@H](NC(=O)[C@H](N)c3ccccc3)C(=O)N2[C@H]1C(=O)O [ampicillin]
- increase in the percent of Amp^R E. coli in feces (Sm^R MG1655 E. coli): 3 orders of magnitude

SMILES: [H]/N=C(/N)N[C@H]1[C@H](O)[C@@H](O)[C@H](O[C@@H]2O[C@@H](C)[C@](O)(C=O)[C@H]2O[C@@H]2O[C@@H](CO)[C@H](O)[C@@H](O)[C@@H]2NC)[C@@H](N/C(N)=N\[H])[C@@H]1O [streptomycin]
- effect on gut microbial community (gut microbiota): altered gut microbial community structure while decreasing diversity and colonization level
